We go through three compounds from article PMC12218520, “Oxyresveratrol suppressed melanogenesis, dendrite formation, and melanosome transport in melanocytes via regulation of the MC1R/cAMP/MITF pathway” (Scientific Reports, 2025).

Like-named read-outs stand apart in the source and are kept apart here.

Assay [1] concerns the target T1, human tyrosinase (Homo sapiens, UniProt P14679).
T1 construct: gene TYR; recombinant human tyrosinase (OriGene TP321797L)
T1 sequence (P14679 19-529): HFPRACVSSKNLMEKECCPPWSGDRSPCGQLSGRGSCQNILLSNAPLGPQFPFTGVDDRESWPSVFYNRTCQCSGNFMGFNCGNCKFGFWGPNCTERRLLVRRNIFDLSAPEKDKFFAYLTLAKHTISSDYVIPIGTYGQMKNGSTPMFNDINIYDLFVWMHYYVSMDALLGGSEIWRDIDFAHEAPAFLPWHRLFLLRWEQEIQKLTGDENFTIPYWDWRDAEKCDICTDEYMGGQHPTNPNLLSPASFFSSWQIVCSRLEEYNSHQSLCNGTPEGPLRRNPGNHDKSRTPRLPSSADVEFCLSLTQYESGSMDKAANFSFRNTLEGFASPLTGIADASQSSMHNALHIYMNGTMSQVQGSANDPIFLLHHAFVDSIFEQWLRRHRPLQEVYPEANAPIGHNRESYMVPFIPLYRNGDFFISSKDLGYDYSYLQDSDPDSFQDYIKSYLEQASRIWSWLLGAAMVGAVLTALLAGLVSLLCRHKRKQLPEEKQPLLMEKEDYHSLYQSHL
The experiment in a line: substrate of the tyrosinase assay ([…]), absorbance at […] nm. The assay is classed as biochemical.

In assay [2] the target is T1, human tyrosinase. The experiment in a line: L-DOPA oxidation assay with recombinant human tyrosinase, absorbance at […] nm. It is filed as biochemical.

On to `N[C@@H](Cc1ccc(O)c(O)c1)C(=O)O` [L-DOPA], for which the “substrate of the tyrosinase assay (0.5 mM), absorbance at 492 nm” value in assay [1] was “Inhibition of human tyrosinase activity by oxyresveratrol, resveratrol, phenylethyl resorcinol, and glabridin in vitro, using L-DOPA as substrate”. Take `Oc1ccc(/C=C/c2cc(O)cc(O)c2)cc1` [compound 2, Resveratrol]: in assay [2], the IC50 was 57.2 µM. For the compound `CC(c1ccccc1)c1ccc(O)cc1O` (stereo not drawn) [compound 3, Phenylethyl resorcinol], in assay [2] (read-out: IC50 (μg/mL) (converted)), the IC50 is 88.5 µM.
